Data as given in patent US4504463A, “Process for making a lyophilized product for use in skeletal imaging” (Mallinckrodt, Inc., priority 1982, dated 1985).

Assay: Skeletal imaging with scintillation camera after intravenous injection
Assay type: in vivo, adult human
Details: for results when used instead of the disodium salt of HMDP: carrier replaced in Example I kit; for results when used instead of AMDP: carrier replaced in Example II kit
Protocol: An imaging agent is prepared using this kit by adding about 5 ml of a pertechnetate-Tc99m physiological saline with an activity of about 75 mCi, from a commercial technetium source. The vial is agitated until the kit components are dissolved. About 1 ml of the agent is slowly injected, over a period of about 30 seconds, into an adult human subject weighing about 75 kg.

OCc1cc(O)ccc1O [gentisyl alcohol]
results when used instead of gentisic acid (stabilizer replaced in Example I kit): substantially similar results

O=P(O)(O)C(O)P(=O)(O)O [HMDP, methanehydroxydiphosphonic acid]
results when used instead of the disodium salt of HMDP: substantially similar results

CN(C)C(P(=O)(O)O)P(=O)(O)O [methane-N,N-dimethylaminodiphosphonic acid]
results when used instead of AMDP: substantially similar results

stannous fluoride
results when used with or instead of stannous chloride (in vivo): substantially similar results

NC(O)(P(=O)(O)O)P(=O)(O)O [methaneaminohydroxydiphosphonic acid]
results when used instead of AMDP: substantially similar results

NCC(O)(P(=O)(O)O)P(=O)(O)O [ethane-1-hydroxy-2-amino-1,1-diphosphonic acid]
results when used instead of AMDP: substantially similar results

Oc1ccc(O)cc1 [hydroquinone]
results when used instead of gentisic acid (in vivo): substantially similar results

CC(O)(P(=O)(O)O)P(=O)(O)O [EHDP, ethane-1-hydroxy-1,1-diphosphonic acid]
results when used instead of the disodium salt of HMDP: substantially similar results

O=S(=O)([O-])[O-].[Sn+2] [stannous sulfate]
results when used with or instead of stannous chloride (reductant replaced or added in Example II kit): substantially similar results

O=P(O)(O)CP(=O)(O)O [MDP, methanediphosphonic acid]
results when used instead of the disodium salt of HMDP: substantially similar results

CNC(P(=O)(O)O)P(=O)(O)O [methane-N-methylaminodiphosphonic acid]
results when used instead of AMDP: substantially similar results
